The test system of assay [1] is adjuvant-induced arthritis in rats. The experiment in a line: Established adjuvant-induced arthritis in rats (A.A.). The class given is in vivo, Charles River Lewis male rats. The conditions noted are these: Rattus norvegicus, 24 h, read-out: A.A. ED50% (% paw volume reduction from control).
Assay [2] deals with phenylquinone-induced writhing (pain) in mice. Nature of the assay: Phenylquinone writhing test. The class given is in vivo, female white mice. The conditions noted are these: Mus musculus; oral; phenylquinone i.p.; footnote: at 2 hours; read-out: ED50 (effective analgesic dose for 50% of the mice). Here is the method: A procedure for detecting and comparing the analgesic activity of compounds in this series and standard drugs for which there is a good correlation with human efficacy is the phenylquinone writhing test.
The phenylquinone writhing test, modified from Siegmund, et al., Proc. Soc. Exp. Biol. Med. 95, 729 (1957), was employed. A test compound suspended in 1% methylcellulose was given orally to fasted (17-21 hours) female white mice, 5-20 animals per double blind test. […] […] The effective analgesic dose for 50% of the mice (ED50) was calculated by the moving average method of Thompson, W. R., Bact. Rev. 11, 115-145 (1947).
On the technique in general: In writhing tests, fewer writhes than in controls are read as antinociception.

The mark [3] stands for this setting: oral gavage, 7 daily doses, established adjuvant arthritis, uninjected left hind paw volume one day after last dose.

SMILES strings stand for the structures. Like-named read-outs stand apart in the source and are kept apart here.

The ED50 is the midpoint of the dose-response relation.

Take `CC(=O)Oc1ccccc1C(=O)O` [Aspirin, reference compound]: the ED50 in assay [1] (po) amounted to 305 mg/kg. Still for that read-out and setting: under `FC(F)C(F)(F)Sc1nc2c3ccccc3c3ccccc3c2[nH]1` [Example 2, 2-[(1,1,2,2-tetrafluoroethyl)thio]-1H-phenanthro[9,10-d]imidazole] stands more than 25 mg/kg. Turning to `COc1ccc2c(c1)c1cc(OC)ccc1c1[nH]c(S(=O)(=O)C(F)(F)F)nc21` [Example 6, 6,9-Dimethoxy-2-(trifluoromethylsulfonyl)-1H-phenanthro-[9,10-d]imidazole], the ED50 in assay [2] is 29 mg/kg.

In the case of `CC(C)Cc1ccc(C(C)C(=O)O)cc1` (stereo not drawn) [Ibuprofen, reference compound], the ED50 in assay [1] (setting [3]) turned out to be 100 mg/kg. Consider `COc1ccc2c(c1)c(CC(=O)O)c(C)n2C(=O)c1ccc(Cl)cc1` [Indomethacin, reference compound], for which the ED50 in assay [1] (po) is 0.3 mg/kg. On the same count and under the same terms, under `O=S(=O)(c1nc2c3ccccc3c3ccccc3c2[nH]1)C(F)(F)C(F)F` [Example 3, 2-[(1,1,2,2-Tetrafluoroethyl)sulfonyl]-1H-phenanthro-[9,10-d]-imidazole] stands 28 mg/kg.

`CCCCC1C(=O)N(c2ccccc2)N(c2ccccc2)C1=O` [Phenylbutazone, reference compound]: the ED50 in assay [1] (setting [3]) came out at 10 mg/kg. In the case of `Fc1ccc2c(c1)c1cc(F)ccc1c1[nH]c(SC(F)(F)C(F)F)nc21` [Example 7, 6,9-Difluoro-2-[(1,1,2,2-tetrafluoroethyl)thio]-1H-phenanthro-[9,10-d]imidazole], the ED50 in assay [1] (po) amounted to 0.45 mg/kg.

In the case of `O=S(=O)(c1nc2c3ccc(F)cc3c3cc(F)ccc3c2[nH]1)C(F)(F)C(F)F` [Example 8, 6,9-Difluoro-2-[(1,1,2,2-tetrafluoroethyl)sulfonyl]-1H-phenanthro[9,10-d]imidazole], in assay [1] (po), the ED50 was found to be 0.8 mg/kg.

Values taken from US4215135A, “Antiinflammatory 2-substituted-1H-phenanthro[9,10-d]imidazoles” (E. I. Du Pont de Nemours and Company, priority 1979, dated 1980).
